Test results reported in patent US10806726B2, “Methods of using indazole-3-carb oxamides and their use as Wnt/B-catenin signaling pathway inhibitors” (Samumed, LLC, priority 2016, dated 2020).

Legend:
[1] = system: primary human mesenchymal stem cells (hMSCs); test: Tenocyte differentiation screening in hMSCs (SCXA-positive cells, 4 days); format: cell-based; settings: 96 h, fold change over DMSO
From the text: Representative compounds were screened using primary human mesenchymal stem cells (hMSCs) to determine their ability to induce tenocyte differentiation (process by which tendon is developed).
Primary human mesenchymal stem cells (hMSCs) were purchased from Lonza (Walkersville, Md.) and expanded in Mesenchymal Stem Cell Growth Media (Lonza). Cells between passage 3 and 6 were used for the experiments.
Cells were fixed using 4% formaldehyde (Electron Microscopy Sciences), and stained with anti-Sclerasis (anti-SCXA) antibodies (Abgent, San Diego, Calif.) [Webb S., et. al., Retinoic acid receptor signaling preserves tendon stem cell characteristics and prevents spontaneous differentiation in vitro, Stem Cell Research & Therapy 2016, 7:45] overnight at 4° C. […] Number of cells positive for SCXA in each well was quantified using the Celllnsight CX5. Data was normalized to the average of 12 DMSO treated wells on the same plate using Dotmatics Studies module. The normalized averages (fold change over DMSO) of 3 replicate wells for each compound concentration were calculated. Due to solubility limitations of some of the compounds, values for higher doses were manually corrected and curve fitting and EC50 determinations were performed using Dotmatics Studies.
EC50 for each compound is reported.

[2] = system: Wnt-responsive promoter driving firefly luciferase in SW480 cells; test: Wnt reporter (SP5 promoter-luciferase) screening assay in SW480 cells; format: cell-based; settings: Homo sapiens, 24-40 h, top concentration ten micromolar
From the text: Another screening assay for Wnt activity is described as follows. Reporter cell lines can be generated by stably transducing cells of cancer cell lines (e.g., colon cancer) with a lentiviral construct that include a Wnt-responsive promoter driving expression of the firefly luciferase gene.
Lentiviral constructs can be made in which the SP5 promoter, a promoter having eight TCF/LEF binding sites derived from the SP5 promoter, is linked upstream of the firefly luciferase gene. The lentiviral constructs can also include a hygromycin resistance gene as a selectable marker. The SP5 promoter construct can be used to transduce SW480 cells, a colon cancer cell line having a mutated APC gene that generates a truncated APC protein, leading to de-regulated accumulation of β-catenin.
Cultured SW480 cells bearing a reporter construct can be distributed at approximately 10,000 cells per well into 96 well or 384 well plates. Compounds from a small molecule compound library can then be added to the wells in half-log dilutions using a ten micromolar top concentration. A series of control wells for each cell type receive only buffer and compound solvent. Twenty-four to forty hours after the addition of compound, reporter activity for luciferase can be assayed, for example, by addition of the BrightGlo luminescence reagent (Promega) and the Victor3 plate reader (Perkin Elmer). Readings can be normalized to DMSO only treated cells, and normalized activities can then be used in the EC50 calculations.

| Compound | EC50 [1] [nM] | EC50 [2] [nM] |
| --- | --- | --- |
| N#Cc1cncc(-c2ccc3[nH]nc(C(=O)Nc4cccnc4)c3c2)c1 [compound 66, 5-(5-Cyanopyridin-3-yl)-N-(pyridin-3-yl)-1H-indazole-3-carboxamide] | > 100000 | ≥ 10000 |
| CN1CCN(c2ccc(NC(=O)c3n[nH]c4ccc(-c5cncc(CN6CCCCC6)c5)cc34)cn2)CC1 [compound 70, N-(6-(4-Methylpiperazin-1-yl)pyridin-3-yl)-5-(5-(piperidin-1-ylmethyl)pyridin-3-yl)-1H-indazole-3-carboxamide] | 10800 | 41 |
| O=C(Nc1ccc(Oc2ccc(F)cc2)nc1)c1n[nH]c2ccc(-c3cccnc3)cc12 [compound 20, N-(6-(4-Fluorophenoxy)pyridin-3-yl)-5-(pyridin-3-yl)-1H-indazole-3-carboxamide] | 12000 | 118 |
| CN1CCN(c2cncc(-c3ccc4[nH]nc(C(=O)Nc5ccc(N6CCCC6)nc5)c4c3)c2)CC1 [compound 186, 5-(5-(4-Methylpiperazin-1-yl)pyridin-3-yl)-N-(6-(pyrrolidin-1-yl)pyridin-3-yl)-1H-indazole-3-carboxamide] | > 100000 | 460 |
| O=C(NC1CCCC1)c1ccc(NC(=O)c2n[nH]c3ccc(-c4cncc(CN5CCCCC5)c4)cc23)cn1 [compound 184, N-(6-(Cyclopentylcarbamoyl)pyridin-3-yl)-5-(5-(piperidin-1-ylmethyl)pyridin-3-yl)-1H-indazole-3-carboxamide] | > 100000 | 40 |
| C[C@@H]1CCC[C@H](C)N1Cc1cncc(-c2ccc3[nH]nc(C(=O)Nc4cccnc4)c3c2)c1 [compound 84, 5-(5-(((2R,6 S)-2,6-Dimethylpiperidin-1-yl)methyl)pyridin-3-yl)-N-(pyridin-3-yl)-1H-indazole-3-carboxamide] | > 100000 | 822 to 898 |
| O=C(Nc1ccc2c(c1)OCCO2)c1n[nH]c2ccc(-c3cncc(CN4CCCCC4)c3)cc12 [compound 79, N-(2,3-Dihydrobenzo[b][1,4]dioxin-6-yl)-5-(5-(piperidin-1-ylmethyl)pyridin-3-yl)-1H-indazole-3-carboxamide] | > 100000 | 123 |
| O=C(Nc1cccc(F)c1)c1n[nH]c2ccc(-c3cncc(CN4CCCCC4)c3)cc12 [compound 162, N-(3-Fluorophenyl)-5-(5-(piperidin-1-ylmethyl)pyridin-3-yl)-1H-indazole-3-carboxamide] | > 100000 | 426 |
| N#Cc1ccc(NC(=O)c2n[nH]c3ccc(-c4cncc(CN5CCCCC5)c4)cc23)cn1 [compound 62, N-(6-Cyanopyridin-3-yl)-5-(5-(piperidin-1-ylmethyl)pyridin-3-yl)-1H-indazole-3-carboxamide] | > 100000 | 16 |
| O=C(Nc1ccc(N2CCCC2)nc1)c1n[nH]c2ccc(-c3cncc(N4CCOCC4)c3)cc12 [compound 187, 5-(5-Morpholinopyridin-3-yl)-N-(6-(pyrrolidin-1-yl)pyridin-3-yl)-1H-indazole-3-carboxamide] | > 100000 | 215 |
| O=C(Nc1cccnc1)c1n[nH]c2ccc(-c3cncc(Cc4ccccc4)c3)cc12 [compound 55, 5-(5-Benzylpyridin-3-yl)-N-(pyridin-3-yl)-1H-indazole-3-carboxamide] | > 100000 | 44 |
| O=C(Nc1ccc(N2CCCC2)nc1)c1n[nH]c2ccc(-c3cncc(CN4CCC(O)CC4)c3)cc12 [compound 170, 5-(5-((4-Hydroxypiperidin-1-yl)methyl)pyridin-3-yl)-N-(6-(pyrrolidin-1-yl)pyridin-3-yl)-1H-indazole-3-carboxamide] | > 100000 | 43 |
| O=C(Nc1cnccc1C(F)(F)F)c1n[nH]c2ccc(-c3cccnc3)cc12 [compound 48, 5-(Pyridin-3-yl)-N-(4-(trifluoromethyl)pyridin-3-yl)-1H-indazole-3-carboxamide] | > 100000 | ≥ 10000 |
| O=C(Nc1cccnc1)c1n[nH]c2ccc(-c3cncc(F)c3)cc12 [compound 13, 5-(5-fluoropyridin-3-yl)-N-(pyridin-3-yl)-1H-indazole-3-carboxamide] | > 100000 | 1250 |
| O=C(Nc1cncc(Cc2ccccc2)c1)c1n[nH]c2ccc(-c3cncc(CN4CCCCC4)c3)cc12 [compound 80, N-(5-Benzylpyridin-3-yl)-5-(5-(piperidin-1-ylmethyl)pyridin-3-yl)-1H-indazole-3-carboxamide] | > 100000 | 158 |
| O=C(Nc1cnccc1C(F)(F)F)c1n[nH]c2ccc(-c3cncc(CN4CCCC4)c3)cc12 [compound 57, 5-(5-(Pyrrolidin-1-ylmethyl)pyridin-3-yl)-N-(4-(trifluoromethyl)pyridin-3-yl)-1H-indazole-3-carboxamide] | > 100000 | ≥ 10000 |

These reach a lower EC50 [1]. Values come first.

| EC50 [1] [nM] | EC50 [2] [nM] | Compound |
| --- | --- | --- |
| 5170 | 183 | O=C(Nc1ccc(N2CCNCC2)nc1)c1n[nH]c2ccc(-c3cncc(CN4CCCCC4)c3)cc12 [compound 177, N-(6-(Piperazin-1-yl)pyridin-3-yl)-5-(5-(piperidin-1-ylmethyl)pyridin-3-yl)-1H-indazole-3-carboxamide] |
| 5020 | 63 | O=C(Nc1cccnc1)c1n[nH]c2ccc(-c3cncc(CN4CCCC4)c3)cc12 [compound 43, N-(Pyridin-3-yl)-5-(5-(pyrrolidin-1-ylmethyl)pyridin-3-yl)-1H-indazole-3-carboxamide] |
| 625 | 160 | O=C(Nc1cccnc1)c1n[nH]c2ccc(-c3cncc(Oc4ccccc4)c3)cc12 [compound 56, 5-(5-Phenoxypyridin-3-yl)-N-(pyridin-3-yl)-1H-indazole-3-carboxamide] |
| 1580 | 2440 | CN1CCC(NC(=O)c2n[nH]c3ccc(-c4cncc(CN5CCCCC5)c4)cc23)CC1 [compound 87, N-(1-Methylpiperidin-4-yl)-5-(5-(piperidin-1-ylmethyl)pyridin-3-yl)-1H-indazole-3-carboxamide] |
| 5060 | 15 | O=C(Nc1cccnc1)c1n[nH]c2ccc(-c3cncc(CN4CCCCC4)c3)cc12 [compound 46, 5-(5-(Piperidin-1-ylmethyl)pyridin-3-yl)-N-(pyridin-3-yl)-1H-indazole-3-carboxamide] |
| 4900 | 49 | O=C(Nc1ccc(N2CCC(O)CC2)nc1)c1n[nH]c2ccc(-c3cncc(CN4CCCCC4)c3)cc12 [compound 169, N-(6-(4-Hydroxypiperidin-1-yl)pyridin-3-yl)-5-(5-(piperidin-1-ylmethyl)pyridin-3-yl)-1H-indazole-3-carboxamide] |
| 4610 | 48 | O=C(Nc1ccc(C(F)(F)F)nc1)c1n[nH]c2ccc(-c3cncc(CN4CCOCC4)c3)cc12 [compound 68, 5-(5-(Morpholinomethyl)pyridin-3-yl)-N-(6-(trifluoromethyl)pyridin-3-yl)-1H-indazole-3-carboxamide] |
| 1210 | 9 | O=C(Nc1cccnc1)c1n[nH]c2ccc(-c3cncc(CN4CCC(F)(F)C4)c3)cc12 [compound 188, 5-(5-((3,3-Difluoropyrrolidin-1-yl)methyl)pyridin-3-yl)-N-(pyridin-3-yl)-1H-indazole-3-carboxamide] |
| 4800 | 37 | CN1CCN(Cc2ccc(NC(=O)c3n[nH]c4ccc(-c5cccnc5)cc34)cn2)CC1 [compound 15, N-(6-((4-Methylpiperazin-1-yl)methyl)pyridin-3-yl)-5-(pyridin-3-yl)-1H-indazole-3-carboxamide] |
| 1120 | 30 | O=C(Nc1ccc(C(=O)N2CCCC2)nc1)c1n[nH]c2ccc(-c3cncc(CN4CCCCC4)c3)cc12 [compound 179, 5-(5-(Piperidin-1-ylmethyl)pyridin-3-yl)-N-(6-(pyrrolidine-1-carbonyl)pyridin-3-yl)-1H-indazole-3-carboxamide] |
| 5000 | 63 | CN1CCN(c2ccc(NC(=O)c3n[nH]c4ccc(-c5cccnc5)cc34)cn2)CC1 [compound 12, N-(6-(4-Methylpiperazin-1-yl)pyridin-3-yl)-5-(pyridin-3-yl)-1H-indazole-3-carboxamide] |
| 5540 | 48 | O=C(Nc1ccc(N2CCC2)nc1)c1n[nH]c2ccc(-c3cncc(CN4CCCCC4)c3)cc12 [compound 174, N-(6-(Azetidin-1-yl)pyridin-3-yl)-5-(5-(piperidin-1-ylmethyl)pyridin-3-yl)-1H-indazole-3-carboxamide] |
